Literature values as cited in publication PMC5845353, “The selective cathepsin K inhibitor MIV-711 attenuates joint pathology in experimental animal models of osteoarthritis” (Journal of Translational Medicine, 2018).

Test system: HP-1
Design: method as in PMID 22484689
Conditions: ACLT rabbits; cited from earlier work

CN1CCN(c2nc(-c3ccc(C(=O)NC4(C(=O)NCC#N)CCCCC4)cc3)cs2)CC1 [L-006235]
reduction of HP-1 at dose sufficient for protection of bone loss: 60%
